Experimental data as given in the NIST ThermoML archive (doi:10.1016/j.jct.2009.07.021).
“And” between values parts separate entries of the source, which are not always exact repeats. Equal values may be shown once.

What was measured:
[1] = Crystal, Calculated from knudsen effusion weight loss
[2] = molar enthalpy of transition or fusion; settings: 298.15 K; Crystal; Clausius-Clapeyron Eq with Heat Capacity

CC(=O)c1cc(-c2ccccc2)sc1C [3-acetyl-2-methyl-5-phenylthiophene]
[1]
Settings	vapor or sublimation pressure
321.12 K	6.03e-05 kPa and 6.33e-05 kPa and 6.05e-05 kPa
323.13 K	7.9e-05 kPa and 7.98e-05 kPa and 7.73e-05 kPa
325.21 K	0.000102 kPa and 9.93e-05 kPa and 0.0001 kPa
327.12 K	0.000128 kPa and 0.000126 kPa and 0.00013 kPa
329.16 K	0.000162 kPa and 0.00016 kPa and 0.000159 kPa
331.2 K	0.00021 kPa and 0.000202 kPa and 0.000204 kPa
333.12 K	0.000259 kPa and 0.000261 kPa and 0.000258 kPa
335.15 K	0.000328 kPa and 0.000322 kPa and 0.000323 kPa
336.13 K	0.000366 kPa and 0.000371 kPa and 0.000368 kPa
337.2 K	0.000425 kPa and 0.000414 kPa and 0.000409 kPa
338.15 K	0.000461 kPa and 0.000462 kPa and 0.00046 kPa
339.2 K	0.000535 kPa and 0.000522 kPa and 0.000515 kPa

Settings	molar enthalpy of transition or fusion [kcal/mol]
[2]	26.03
